US20070015737A1, “Compounds for inhibiting diseases and preparing cells for transplantation” (Neurochem (International) Limited, priority 1999, published 2007)

Columns and labels:
Assay type in all cases: biochemical
IAPP [1] = molecular target: T1, IAPP (Homo sapiens, UniProt P10997); assay: Rate of amyloid fibril formation by Thioflavine T spectroscopy (Example 1); details: Thioflavine T fluorescence
T1 sequence (P10997 34-70 limits assumed): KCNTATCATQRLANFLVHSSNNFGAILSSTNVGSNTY
Experimental: Determination of the Rate of Amyloid Fibril Formation by Thioflavine T Spectroscopy
Detection of ThT fluorescence can be used as a sensitive assay for amyloid fibril formation under different conditions. This assay has been used in experiments to determine the effects of compounds of the invention on amyloid fibril formation.
Human IAPP was dissolved in 40% trifluoroethanol and freeze-dried into conveniently-sized aliquots. IAPP was prepared immediately before the measurements by dissolving in 40% 1,1,1,3,3,3-hexafluoro-2-propanol (HFIP) in water to maintain the peptide in alpha helical conformation and soluble. A stock solution of ThT (2.5 mM) was prepared, 7.9 mg in 10 mL Tris-HCl pH 7.0 and filtered (0.22 μm). Solutions were kept in the dark until use. Fluorescence was examined at 440 nm excitation (slit 5 nm), and emission at 482 nm (slit 10 nm) with stirring. […] of ThT stock (final concentration 62.5 μM) was added to peptide sample and made up to 1 mL in the cuvette. The sample was stirred for 5 min. before taking a reading. Measurements were made at an initial time point (5 min. from sample preparation), at intervals over the next 4-6 h and after overnight incubation at room temperature.

Human IAPP (hIAPP) = molecular target: T2, Human IAPP (hIAPP) (Homo sapiens, UniProt P10997); assay: ELISA assay for quantitative determination of fibril formation (Example 4)
T2 construct: Human IAPP (hIAPP) was synthesised by solid state synthesis (Advanced Biotechnologies, UK); purchased Advanced Biotechnologies, UK; host or cells: chemical solid-phase synthesis
T2 sequence (P10997 34-70 limits assumed): T1 sequence (P10997 34-70 limits assumed)
Experimental: ELISA Assay for Quantitative Determination of Fibril Formation
Human IAPP (hIAPP) was synthesised by solid state synthesis (Advanced Biotechnologies, UK). Human IAPP forms fibrils immediately in aqueous media. Aliquots of IAPP in water (800 μg/ml) were stored frozen at −20° C. until use. These samples contain small numbers of fibrils visible with electron microscopy (em).
Two sets of samples containing IAPP (20 μM) with or without inhibitors (at a molar ratio of 10:1 with IAPP, (20 μM)) were prepared on day 1 in Tris buffer. One set was centrifuged, the supernatant removed and frozen immediately at −20° C. (Time zero time point). The other set was incubated overnight at room temp with shaking (time 24 h time point). On day 2 these samples were spun and supernatant removed to determine the proportion of non-fibrillar IAPP.
To assay IAPP in the supernatant both sets of samples were serially diluted in bicarbonate coating buffer, added to ELISA wells and incubated overnight. Plates were washed in phosphate buffer containing Tween (PBS/Tw)×3. Diluted antiserum raised against human IAPP was incubated on the plate for 90 minutes at 37° C. Following washing in PBS/Tw, alkaline phosphatase conjugated anti-rabbit antisera was incubated for 90 mins. Following washing in PBS/Tw, alkaline phosphate substrate was added and colour allowed to develop for 30 mins. Optical density was read at 405 nm.
Data from all samples was calculated to determine changes of IAPP concentration in the supernatant induced by the candidate substance immediately (i.e. at time zero) or after 24 h incubation. Data in FIG. 1 is expressed as the proportion of non-fibrillar IAPP in the supernatant of test samples compared to control at both time points.

IAPP [2] = molecular target: T1, IAPP; assay: Rate of fibril formation by Thioflavine T spectroscopy (Example 5); details: thioflavine T assay
Experimental: Determination of the Rate of Fibril Formation by Thioflavine T Spectroscopy
This can be used as a sensitive assay for fibril formation under different conditions. This assay has been used in experiments to determine the effects of some candidate compounds on fibril formation.
Human IAPP was dissolved in 40% Trifuoroethanol and freeze dried into convenient sized aliquots. IAPP (1 mg/ml) was prepared immediately before the measurement by dissolving in 40% HFIP in water to maintain the peptide in alpha confirmation and soluble. A stock solution of Thioflavine T (2.5 mM) was prepared 7.9 mg in 10 ml Tris pH 7.0 and filtered (0.22 micron). Solutions were kept in dark until use. Fluorescence was examined at 440 nm excitation (slit 5 nm), and Emission at 482 nm (Slit 10 nm) with stirring. Twenty five microlitres of Th-T stock (final conc 62.5 μM) was added to peptide sample (8 μg/ml) and made up to 1 ml in the cuvette. The sample was stirred for 5 min before taking a reading. Measurements were made at an initial time points (5 mins from sample preparation) and at intervals over the next 4-6 h after overnight incubation at room temp with and without candidate compound (vi) and a compound known to accelerate fibril formation, polyvinylsulphonate.

IAPP fibrils = molecular target: T3, IAPP fibrils (Homo sapiens, UniProt P10997); assay: Morphological characteristics of IAPP fibrils by transmission electron microscopy (Example 10); details: incubated 48 h, compared with IAPP alone
T3 sequence (P10997 34-70 limits assumed): T1 sequence (P10997 34-70 limits assumed)
Experimental: Morphological Characteristics of IAPP Fibrils Formed in Mixtures with Candidate Compounds.
IAPP prepared as in Example 3 was incubated with candidate compounds for 48 h Samples were then examined by transmission electron microscopy for the presence of fibrils. […] Long and short unbranching fibrils were present.

IAPP [3] = molecular target: T1, IAPP; assay: Circular dichroism analysis of β-sheet conformation (Example 2); parameters: add 10 μL of 10 mg/mL IAPP stock solution (final 100 μg peptide); details: changes in ellipticity at 218 nm (β-sheet conformation); peptide:compound 1:10
Experimental: Circular dichroism analysis was conducted to confirm the activity of certain therapeutic compounds in preventing or inhibiting IAPP-associated fibril formation in accordance with the present disclosure by determining the presence or absence of β-sheet conformation.
The assay, a co-incubation procedure, examines the ability of a compound or substance to inhibit the assembly of amyloid fibrils, e.g., to test for the presence of the amyloidotic b-sheet conformation in the presence of soluble IAPP. Samples are run in the presence and absence (i.e., water alone) of buffering agent, which is done to determine if competitive effects are seen with the ionic buffer (usually phosphate).
Add components used at a molar ratio of 1:10 [peptide:compound]; add 10 μL of 10 mg/mL IAPP stock solution (final 100 μg peptide) to the aqueous solution containing compound to a final volume of 400 μl. The pH of the final assay solution is measured to ensure there is no fluctuation and the spectrum is accumulated using the parameters as shown above.
Add desired amount of compound to achieve a 1:10 molar ratio in 10 mM phosphate buffer, pH 7. Add 10 μL of 10 mg/mL IAPP stock solution (final peptide 100 μg) to the phosphate buffered solution containing the compound and bring to a final volume of 400 μL. The pH of the final assay solution is measured to ensure there is no fluctuation and the spectrum is accumulated using the parameters as shown above.
In both assays, a control sample is run with each test group. This control contains peptide only in water or buffer at a similar final volume of 400 μl. Spectra for the control are collected initially (first run) and at the end of the test (final run) to ensure that the peptide has not undergone extensive aggregation during the course of the assay. Spectra for the controls are used to compare with the measurements obtained with the treated samples.
Make fresh 1 mg/mL stock solution of IAPP in 10 mM phosphate buffer, pH 7. Add desired amount of compound to achieve a 1:10 molar ratio in 10 mM phosphate buffer, pH 7. Incubate for 3 days at room temperature. Make up to final volume of 400 μL with 10 mM phosphate buffer, pH 7. The pH of the final assay solution is measured to ensure there is no fluctuation and the spectrum is accumulated using the parameters as shown above. A similar control is run for comparative purposes.
Plots of the spectra (control and treated) are individually assembled and the changes in ellipticity at 218 nm are examined. This minimum is directly correlated with the amount of peptide in β-sheet conformation present in the sample. Changes in either a positive or negative direction are noted and a relative value (“active” or “not active”) assigned to the compound as a measure of activity.

O=C(O)C(F)(F)C(F)(F)C(F)(F)C(=O)O [vi, Hexafluoroglutaric acid]
IAPP-associated fibril assembly (IAPP [1]): inhibit or prevent IAPP-associated fibril assembly | proportion of non-fibrillar IAPP in the supernatant (Human IAPP (hIAPP); IAPP 20 μM, inhibitor:IAPP molar ratio 10:1, compared to control): increase the proportion of non-fibrillar IAPP in the supernatant | time point at which the increase of non-fibrillar IAPP was greater (Human IAPP (hIAPP); time zero versus time 24 h): greater at time zero | time for which the reduced fluorescence level was stable (IAPP [2]): up to 15 hrs | fluorescence units (IAPP [2]; compared with IAPP alone): reduced fluorescence below the level recorded for IAPP alone | presence and morphology of fibrils (IAPP fibrils): contained fewer fibrils which were apparently short and long and not aggregated | Activity (IAPP [3]): Active
